PMC6218581, “Resurrecting the Regulatory Properties of the Ostreococcus tauri ADP-Glucose Pyrophosphorylase Large Subunit” (Frontiers in Plant Science, 2018)

What was measured:
[1] = target: T1, OtaS/OtaL ADP-Glc PPase (Ostreococcus tauri, UniProt A0A090M9E5+A0A096P9X2, A0A096P9X2:R476K, form not given); test: ADP-[…]Glc formation, activation curve, Hill fit; format: biochemical; conditions: allosteric activator; 50 mM HEPPS pH 8.0, 10 mM MgCl2, 1 mM Glc1P, 2.5 mM ATP, 37°C, no Pi; read-out: A0.5
T1 construct: gene OT_ostta07g03070; heterotetramer alpha2beta2, co-expressed from pMAB5/OtaS and pMAB6/OtaL in E. coli AC70R1-504; DEAE and Resource PHE purification, no tag mentioned

[2] = target: T2, StuSK441A/OtaL hybrid heterotetramer (Solanum tuberosum; Ostreococcus tauri, UniProt A0A096P9X2+P23509, A0A096P9X2:R476K/P23509:K511A, form not given); test: ADP-[…]Glc formation, activation curve, Hill fit; format: biochemical; conditions: read-out: A0.5; allosteric activator; 50 mM HEPPS pH 8.0, 10 mM MgCl2, 1 mM Glc1P, 2.5 mM ATP, 2 mM DTT, 37°C, no Pi
T2 construct: hybrid heterotetramer: potato tuber small subunit K441A co-expressed with O. tauri large subunit in E. coli AC70R1-504; purified

[3] = target: T3, OtaS/OtaL ADP-Glc PPase (Ostreococcus tauri, UniProt A0A090M9E5+A0A096P9X2, A0A096P9X2:L24M/A0A090M9E5:K508R); test: ADP-[…]Glc formation, activation curve, Hill fit; format: biochemical; set-up: gene OT_ostta07g03070; heterotetramer alpha2beta2, co-expressed from pMAB5/OtaS and pMAB6/OtaL in E. coli AC70R1-504; DEAE and Resource PHE purification, no tag mentioned; conditions: allosteric activator; 50 mM HEPPS pH 8.0, 10 mM MgCl2, 1 mM Glc1P, 2.5 mM ATP, 37°C, no Pi; read-out: A0.5
[4] = target: T4, OtaS/OtaL ADP-Glc PPase (Ostreococcus tauri, UniProt A0A090M9E5+A0A096P9X2, A0A096P9X2:R476K/A0A090M9E5:K508R, form not given); test: ADP-[…]Glc formation, activation curve, Hill fit; format: biochemical; conditions: allosteric activator; 50 mM HEPPS pH 8.0, 10 mM MgCl2, 1 mM Glc1P, 2.5 mM ATP, 37°C, no Pi; read-out: A0.5
T4 construct: gene OT_ostta07g03070; heterotetramer alpha2beta2, co-expressed from pMAB5/OtaS and pMAB6/OtaL in E. coli AC70R1-504; DEAE and Resource PHE purification, no tag mentioned

[5] = target: T5, OtaS/OtaL ADP-Glc PPase (Ostreococcus tauri, UniProt A0A090M9E5+A0A096P9X2, A0A096P9X2:L24M); test: ADP-[…]Glc formation, activation curve, Hill fit; format: biochemical; set-up: gene OT_ostta07g03070; heterotetramer alpha2beta2, co-expressed from pMAB5/OtaS and pMAB6/OtaL in E. coli AC70R1-504; DEAE and Resource PHE purification, no tag mentioned; conditions: allosteric activator; 50 mM HEPPS pH 8.0, 10 mM MgCl2, 1 mM Glc1P, 2.5 mM ATP, 37°C, no Pi; read-out: A0.5
[6] = target: T6, StuSK441A/OtaL hybrid heterotetramer (Solanum tuberosum; Ostreococcus tauri, UniProt A0A096P9X2+P23509, A0A096P9X2:L24M/P23509:K511A); test: ADP-[…]Glc formation, activation curve, Hill fit; format: biochemical; conditions: read-out: A0.5; allosteric activator; 50 mM HEPPS pH 8.0, 10 mM MgCl2, 1 mM Glc1P, 2.5 mM ATP, 2 mM DTT, 37°C, no Pi
T6 construct: hybrid heterotetramer: potato tuber small subunit K441A co-expressed with O. tauri large subunit in E. coli AC70R1-504; purified

[7] = target: T3, OtaS/OtaL ADP-Glc PPase; set-up: gene OT_ostta07g03070; conditions: read-out: I0.5; allosteric inhibitor; 3PGA present at its A0.5 (1.6 mM); 50 mM HEPPS pH 8.0, 10 mM MgCl2, 1 mM Glc1P, 2.5 mM ATP, 37°C
Source text: (§1) ADP-Glc PPase activity, inhibition curve, Hill fit on OtaS/OtaL ADP-Glc PPase

[8] = target: T5, OtaS/OtaL ADP-Glc PPase; set-up: gene OT_ostta07g03070; conditions: read-out: I0.5; allosteric inhibitor; 3PGA present at its A0.5 (0.61 mM); 50 mM HEPPS pH 8.0, 10 mM MgCl2, 1 mM Glc1P, 2.5 mM ATP, 37°C
Source text: as §1

T5 sequence (A0A090M9E5 entry or part of it): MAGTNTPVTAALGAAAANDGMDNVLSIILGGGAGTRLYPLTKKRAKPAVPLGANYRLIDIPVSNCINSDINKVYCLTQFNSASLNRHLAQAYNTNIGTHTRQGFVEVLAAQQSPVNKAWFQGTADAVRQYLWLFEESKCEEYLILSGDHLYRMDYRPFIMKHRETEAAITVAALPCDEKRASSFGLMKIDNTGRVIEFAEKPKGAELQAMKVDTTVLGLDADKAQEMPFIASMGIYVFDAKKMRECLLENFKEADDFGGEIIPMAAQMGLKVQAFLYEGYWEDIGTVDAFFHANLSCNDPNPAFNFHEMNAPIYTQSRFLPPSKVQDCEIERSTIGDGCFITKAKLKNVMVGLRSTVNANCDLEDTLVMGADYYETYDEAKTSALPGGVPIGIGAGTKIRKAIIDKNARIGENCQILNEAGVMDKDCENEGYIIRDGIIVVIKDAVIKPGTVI
T5 sequence (A0A096P9X2 entry or part of it L24M): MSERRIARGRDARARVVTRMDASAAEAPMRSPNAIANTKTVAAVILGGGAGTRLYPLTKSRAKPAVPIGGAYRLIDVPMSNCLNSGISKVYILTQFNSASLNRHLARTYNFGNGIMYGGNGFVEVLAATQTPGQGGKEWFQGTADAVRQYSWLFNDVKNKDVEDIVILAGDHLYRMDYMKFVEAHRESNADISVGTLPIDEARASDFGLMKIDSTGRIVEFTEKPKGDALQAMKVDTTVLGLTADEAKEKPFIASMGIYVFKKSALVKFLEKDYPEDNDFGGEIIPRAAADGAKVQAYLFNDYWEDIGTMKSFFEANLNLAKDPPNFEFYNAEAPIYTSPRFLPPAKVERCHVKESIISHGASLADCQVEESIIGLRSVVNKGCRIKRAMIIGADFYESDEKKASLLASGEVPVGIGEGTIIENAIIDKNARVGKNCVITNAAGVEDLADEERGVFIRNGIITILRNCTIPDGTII
T3 sequence (A0A090M9E5 entry or part of it K508R): as the sequence (A0A090M9E5 entry or part of it) above, with K443R counted along it
T3 sequence (A0A096P9X2 entry or part of it L24M): as the sequence (A0A096P9X2 entry or part of it L24M) above
T2 sequence (P23509 73-521 K511A, form open): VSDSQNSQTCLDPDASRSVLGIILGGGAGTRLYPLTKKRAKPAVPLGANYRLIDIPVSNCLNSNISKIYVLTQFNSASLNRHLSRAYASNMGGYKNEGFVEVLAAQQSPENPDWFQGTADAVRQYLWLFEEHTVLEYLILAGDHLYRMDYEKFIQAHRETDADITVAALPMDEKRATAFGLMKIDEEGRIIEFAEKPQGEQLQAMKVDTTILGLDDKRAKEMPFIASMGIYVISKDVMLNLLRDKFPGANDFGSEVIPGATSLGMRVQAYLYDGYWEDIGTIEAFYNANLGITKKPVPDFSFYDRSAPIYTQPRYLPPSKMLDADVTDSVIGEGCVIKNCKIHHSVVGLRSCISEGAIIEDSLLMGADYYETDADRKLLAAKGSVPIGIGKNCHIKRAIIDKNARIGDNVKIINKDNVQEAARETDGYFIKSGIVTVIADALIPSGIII
T2 sequence (A0A096P9X2 entry or part of it R476K, form open): as the sequence (A0A096P9X2 entry or part of it L24M) above, with M1L, R453K counted along it
T6 sequence (A0A096P9X2 entry or part of it L24M): as the sequence (A0A096P9X2 entry or part of it L24M) above
T6 sequence (P23509 73-521 K511A): as the sequence (P23509 73-521 K511A, form open) above
T4 sequence (A0A096P9X2 entry or part of it R476K, form open): as the sequence (A0A096P9X2 entry or part of it L24M) above, with M1L, R453K counted along it
T4 sequence (A0A090M9E5 entry or part of it K508R, form open): as the sequence (A0A090M9E5 entry or part of it) above, with K443R counted along it
T1 sequence (A0A096P9X2 entry or part of it R476K, form open): as the sequence (A0A096P9X2 entry or part of it L24M) above, with M1L, R453K counted along it
T1 sequence (A0A090M9E5 entry or part of it, form open): as the sequence (A0A090M9E5 entry or part of it) above

## O=C(O)[C@H](O)COP(=O)(O)O [3PGA]
[1]
  EC50: 190 ± 10 µM
[2]
  EC50: 400 ± 20 µM
[3]
  EC50: 1600 ± 600 µM
[4]
  EC50: 740 ± 80 µM
[5]
  EC50: 610 ± 30 µM
[6]
  EC50: 1200 ± 100 µM

## O=P(O)(O)O [Pi]
[7]
  IC50: 1600 ± 200 µM
[8]
  IC50: 179 ± 4 µM
